Results reported in US20250154686A1, “COMPOUND LIBRARY” (CHUGAI SEIYAKU KABUSHIKI KAISHA, priority 2021, published 2025).

Target: T1, Bcl-2 protein (Recombinant Human Bcl-2 Protein) (Homo sapiens, UniProt P10415)
T1 construct: purchased Novus Biologicals NBP2-34889
Assay: AS-MS evaluation of binding of the Example 4 mixture library (1200 compounds/well) to Bcl-2, ASMS ratio (%)
Procedure, shortened: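 Affinity-selection MS: 1200 cpds/well, 20 nM each; hBcl-2 20 μM; 25 mM Tris pH 7.4/150 mM NaCl/0.025% Tween-20/1 mM DTT; 1 h, 23 °C, dark; P-2 size-exclusion spin, MeCN:MeOH 1:1 extraction; RP LC/MS; ratio vs no-protein STD and SEC blank.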

[1] = replicate n = 1, mixture library, value belongs to the MS peak assigned to the compound
[2] = replicate n = 2, mixture library, value belongs to the MS peak assigned to the compound
[3] = AS-MS, Example 4 mixture library, Bcl-2, replicate n = 1
[4] = AS-MS, Example 4 mixture library, Bcl-2, replicate n = 2

T1 sequence (P10415 whole entry): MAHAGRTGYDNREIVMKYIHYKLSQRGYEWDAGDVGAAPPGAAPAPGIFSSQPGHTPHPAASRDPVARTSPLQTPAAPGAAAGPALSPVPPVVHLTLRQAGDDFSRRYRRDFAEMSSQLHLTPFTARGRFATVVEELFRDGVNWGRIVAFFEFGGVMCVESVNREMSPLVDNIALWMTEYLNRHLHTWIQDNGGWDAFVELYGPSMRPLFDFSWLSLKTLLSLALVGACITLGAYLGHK

SMILES	ASMS ratio (%) n = 1 [1]	ASMS ratio (%) n = 2 [2]	ASMS ratio (%) n = 1 [3]	ASMS ratio (%) n = 2 [4]
CCOc1cccc(C#Cc2ccccc2CN2CCN(c3ccc(C(=O)NS(=O)(=O)C(C)(C)C)cc3)CC2)c1 [Compound B2L069-01, N-tert-Butylsulfonyl-4-[4-[[2-[2-(3-ethoxyphenyl)ethynyl]phenyl]methyl]piperazin-1-yl]benzamide]	0.0%	0.0%		
CCOc1cncc(C#Cc2ccccc2CN2CCN(c3ccc(C(=O)NS(=O)(=O)C(C)(C)C)cc3)CC2)c1 [Compound B2L070-01]	4.9%	−4.2%		
CCOc1cccc(-c2ccccc2CN2CCN(c3ccc(C(=O)NS(=O)(=O)C(C)(C)C)nn3)CC2)c1 [Compound B2L071-01, N-tert-Butylsulfonyl-6-[4-[2-(3-ethoxyphenyl)phenyl]methyl]piperazin-1-yllpyridazine-3-carboxamide]	1.2%	0.0%		
CCOc1cncc(-c2ccccc2CN2CCN(c3ccc(C(=O)NS(=O)(=O)C(C)(C)C)nn3)CC2)c1 [Compound B2L072-01, N-tert-Butylsulfonyl-6-[4-[[2-(5-ethoxypyridin-3-yl)phenyl]methyl]piperazin-1-yl]pyridazine-3-carboxamide]	−10.7%	8.3%		
CCOc1cccc(-c2ccc(CN3CCN(c4ccc(C(=O)NS(=O)(=O)C(C)(C)C)nn4)CC3)cc2C)c1 [Compound B2L073-01]	0.0%	0.0%		
CCOc1cncc(-c2ccc(CN3CCN(c4ccc(C(=O)NS(=O)(=O)C(C)(C)C)nn4)CC3)cc2C)c1 [Compound B2L074-01]	−1.0%	1.4%		
CCOc1cccc(-c2ccc(CN3CCN(c4ccc(C(=O)NS(=O)(=O)C(C)(C)C)nn4)CC3)c(CC)c2)c1 [Compound B2L075-01]	0.0%	33.9%		
CCOc1cncc(-c2ccc(CN3CCN(c4ccc(C(=O)NS(=O)(=O)C(C)(C)C)nn4)CC3)c(CC)c2)c1 [Compound B2L076-01]	1.8%	−0.3%		
CCOc1cccc(-c2ccc(CN3CCN(c4ccc(C(=O)NS(=O)(=O)C(C)(C)C)nn4)CC3)cc2F)c1 [Compound B2L077-01, N-tert-Butylsulfonyl-6-[4-[4-(3-ethoxyphenyl)-3-fluorophenyl]methyl]piperazin-1-yllpyridazine-3-carboxamide]	0.0%	0.0%		
CCOc1cncc(-c2ccc(CN3CCN(c4ccc(C(=O)NS(=O)(=O)C(C)(C)C)nn4)CC3)cc2F)c1 [Compound B2L078-01, N-tert-Butylsulfonyl-6-[4-[[4-(5-ethoxypyridin-3-yl)-3-fluorophenyl]methyl]piperazin-1-yl]pyridazine-3-carboxamide]	1.1%	−0.7%		
CCOc1cccc(-c2ccc(CN3CCN(c4ccc(C(=O)NS(=O)(=O)C(C)(C)C)nn4)CC3)c(OC)c2)c1 [Compound B2L079-01]	0.0%	0.0%		
CCOc1cncc(-c2ccc(CN3CCN(c4ccc(C(=O)NS(=O)(=O)C(C)(C)C)nn4)CC3)c(OC)c2)c1 [Compound B2L080-01]	0.0%	0.0%		
CCOc1cccc(-c2cc(CN3CCN(c4ccc(C(=O)NS(=O)(=O)C(C)(C)C)nn4)CC3)cc(OCC)c2)c1 [Compound B2L081-01, N-tert-Butylsulfonyl-6-[4-[3-ethoxy-5-(3-ethoxyphenyl)phenyl]methyl]piperazin-1-yllpyridazine-3-carboxamide]			0.0%	0.0%
CCOc1cncc(-c2cc(CN3CCN(c4ccc(C(=O)NS(=O)(=O)C(C)(C)C)nn4)CC3)cc(OCC)c2)c1 [Compound B2L082-01]			2.6%	−1.2%
CCOc1cccc(-c2cc(CN3CCN(c4ccc(C(=O)NS(=O)(=O)C(C)(C)C)nn4)CC3)cc(OC(C)C)c2)c1 [Compound B2L083-01]			0.0%	0.0%
CCOc1cncc(-c2cc(CN3CCN(c4ccc(C(=O)NS(=O)(=O)C(C)(C)C)nn4)CC3)cc(OC(C)C)c2)c1 [Compound B2L084-01, N-tert-Butylsulfonyl-6-[4-[3-(5-ethoxypyridin-3-yl)-5-propan-2-yloxyphenylmethyl]piperazin-1-yl]pyridazine-3-carboxamide]			−3.0%	−1.9%
CCOc1cccc(-c2cc(OC)c(CN3CCN(c4ccc(C(=O)NS(=O)(=O)C(C)(C)C)nn4)CC3)c(OC)c2)c1 [Compound B2L085-01, N-tert-Butylsulfonyl-6-[4-[[4-(3-ethoxyphenyl)-2,6-dimethoxyphenyl]methyl]piperazin-1-yl]pyridazine-3-carboxamide]			0.0%	0.0%

SMILES	ASMS ratio (%) n = 1 [1]	ASMS ratio (%) n = 2 [2]	ASMS ratio (%) n = 1 [3]	ASMS ratio (%) n = 2 [4]
CCOc1cncc(-c2cc(OC)c(CN3CCN(c4ccc(C(=O)NS(=O)(=O)C(C)(C)C)nn4)CC3)c(OC)c2)c1 [Compound B2L086-01]				0.0%
CCOc1cccc(-c2cc(CN3CCN(c4ccc(C(=O)NS(=O)(=O)C(C)(C)C)nn4)CC3)cc(C(F)(F)F)c2)c1 [Compound B2L087-01, N-tert-Butylsulfonyl-6-[4-[[3-(3-ethoxyphenyl)-5-(trifluoromethyl)phenyl]methyl]piperazin-1-yl]pyridazine-3-carboxamide]			1.9%	−24.6%
CCOc1cncc(-c2cc(CN3CCN(c4ccc(C(=O)NS(=O)(=O)C(C)(C)C)nn4)CC3)cc(C(F)(F)F)c2)c1 [Compound B2L088-01]			0.0%	2.8%
CCOc1cccc(-c2cc(CN3CCN(c4ccc(C(=O)NS(=O)(=O)C(C)(C)C)nn4)CC3)cc(OC(F)(F)F)c2)c1 [Compound B2L089-01, N-tert-Butylsulfonyl-6-[4-[[3-(3-ethoxyphenyl)-5-(trifluoromethoxy)phenyl]methyl]piperazin-1-yl]pyridazine-3-carboxamide]			0.0%	0.0%
CCOc1cncc(-c2cc(CN3CCN(c4ccc(C(=O)NS(=O)(=O)C(C)(C)C)nn4)CC3)cc(OC(F)(F)F)c2)c1 [Compound B2L090-01]			0.0%	0.0%
CCOc1cccc(-c2ccc(CN3CCN(c4ccc(C(=O)NS(=O)(=O)C(C)(C)C)nn4)CC3)c3ccccc23)c1 [Compound B2L091-01]			0.0%	0.0%
CCOc1cncc(-c2ccc(CN3CCN(c4ccc(C(=O)NS(=O)(=O)C(C)(C)C)nn4)CC3)c3ccccc23)c1 [Compound B2L092-01, N-tert-Butylsulfonyl-6-[4-[[4-(5-ethoxypyridin-3-yl)naphthalen-1-yl]methyl]piperazin-1-yl]pyridazine-3-carboxamide]			5.5%	7.8%
CCOc1cccc(-c2csc(CN3CCN(c4ccc(C(=O)NS(=O)(=O)C(C)(C)C)nn4)CC3)c2)c1 [Compound B2L093-01]				0.0%
CCOc1cncc(-c2csc(CN3CCN(c4ccc(C(=O)NS(=O)(=O)C(C)(C)C)nn4)CC3)c2)c1 [Compound B2L094-01, N-tert-Butylsulfonyl-6-[4-[[4-(5-ethoxypyridin-3-yl)thiophen-2-yl]methyl]piperazin-1-yl]pyridazine-3-carboxamide]			0.2%	1.8%
CCOc1cccc(C#Cc2ccccc2CN2CCN(c3ccc(C(=O)NS(=O)(=O)C(C)(C)C)nn3)CC2)c1 [Compound B2L095-01]			0.0%	0.0%
CCOc1cncc(C#Cc2ccccc2CN2CCN(c3ccc(C(=O)NS(=O)(=O)C(C)(C)C)nn3)CC2)c1 [Compound B2L096-01]			0.0%	0.0%
CCOc1cccc(-c2ccc(C(C)N3CCN(c4ccc(C(=O)NS(=O)(=O)C(C)(C)C)cc4)CC3)cc2)c1 (stereo not drawn) [Compound B2L097-01, N-tert-Butylsulfonyl-4-[4-[1-[4-(3-ethoxyphenyl)phenyl]ethyl]piperazin-1-yl]benzamide]			0.0%	0.0%
CCOc1cncc(-c2ccc(C(C)N3CCN(c4ccc(C(=O)NS(=O)(=O)C(C)(C)C)cc4)CC3)cc2)c1 (stereo not drawn) [Compound B2L098-01, N-tert-Butylsulfonyl-4-[4-[1-[4-(5-ethoxypyridin-3-yl)phenyl]ethyl]piperazin-1-yl]benzamide]			3.9%	−5.0%
CCOc1cncc(-c2ccc(C(C)N3CCN(c4ccc(C(=O)NS(=O)(=O)C(C)(C)C)cc4)CC3)c(F)c2)c1 (stereo not drawn) [Compound B2L100-01, N-tert-Butylsulfonyl-4-[4-[1-[4-(5-ethoxypyridin-3-yl)-2-fluorophenyl]ethyl]piperazin-1-yl]benzamide]			0.0%	0.0%
CCOc1cccc(-c2csc(C(=O)N3CCN(c4ccc(C(=O)NS(=O)(=O)CCC(F)(F)F)nn4)CC3)c2)c1 [Compound B2N001-01, 6-[4-[4-(3-Ethoxyphenyl)thiophene-2-carbonyl]piperazin-1-yl]-N-(3,3,3-trifluoropropylsulfonyl)pyridazine-3-carboxamide]				0.0%
CCOc1cncc(-c2csc(C(=O)N3CCN(c4ccc(C(=O)NS(=O)(=O)CCC(F)(F)F)nn4)CC3)c2)c1 [Compound B2N002-01, 6-[4-[4-(5-Ethoxypyridin-3-yl)thiophene-2-carbonyl]piperazin-1-yl]-N-(3,3,3-trifluoropropylsulfonyl)pyridazine-3-carboxamide]			0.0%	0.0%
